Test results taken from patent US20070077583A1, “Alpha enolase-directed diagnostics and therapeutics for cancer and chemotherapeutic drug resistance” (Aurelium BioPharma, Inc., priority 2005, published 2007).
“Also recorded” adds a separate entry of the source. Where two headings read alike, the source gives them in different places.

Experiments:
[1] = system: SKOV3 cells; experiment: Cytotoxicity in α-enolase siRNA transfected SKOV3 cells; conditions: data not shown
[2] = system: H460 cells; experiment: MTT cytotoxicity assay, H460 cells transfected with α-enolase siRNA; type: cell-based, human; conditions: for EC50: Homo sapiens
Protocol: To establish the effectiveness of α-enolase silencing on other cancer cell types, H460 non-small cell lung cancer cells were challenged with a chemotherapeutic drug, MTT cytotoxicity assays were carried out and survival curves plotted as shown in FIG. 17.

[3] = system: A549 cells; experiment: MTT cytotoxicity assay, A549 cells transfected with α-enolase siRNA; conditions: for EC50: Homo sapiens
Protocol: Small interfering RNA transfected cells were seeded in triplicate into 96-well plates at 5×10^3 cells/well 48 hrs post-transfection. The cells were incubated for an additional 16-24 hrs before they were exposed to increasing concentrations of cytotoxic drugs. […] Appropriate dilutions were made in the respective media for each cell line. Following addition of drugs, incubation was continued for an additional 72 hrs. Twenty-five ml of MTT dye (5 mg/ml) were added into each well and the plate was further incubated at 37° C. for 4 hrs. The dye was solubilized with 10% Triton X-100, 0.01 N HCl and further incubated at 37° C. in the dark for 30 min. Cell viability was determined by measure of absorption at 570 nm in a Wallac multiwell plate reader (PerkinElmer, Inc., Boston, Mass.). The averages of triplicate wells were plotted using the Prism software (GraphPad Software, Inc., San Diego, Calif.).
To investigate if α-enolase is broadly involved in mediating drug resistance to microtubule targeting agents, non-small cell lung cancer cell lines A549 and H460, respectively, were transfected with α-enolase siRNA and enolase expression and viability were assessed.

[4] = system: MCF-7 cells; experiment: MTT cytotoxicity assay, MCF-7 cells transfected with α-enolase siRNA; type: cell-based, human; conditions: MCF-7 cells
Protocol: For a typical siRNA transfection, 1 nmole of the annealed siRNA duplex was mixed with 1.4 ml of Opti-MEM reagent (Invitrogen). In another tube, […] of Oligofectamine reagent (Invitrogen, Carlsbad, Calif.) is mixed with […] of Opti-MEM. The two solutions are combined and mixed gently by inversion and incubated for 20 min. at RT. The resulting solution is added to the cultured cells drop by drop in a 10 cm dish (cells are approximately 40-50% confluent). The next day the transfected cells were trypsinized and seeded in 6 or 96-well plates and further incubated for the indicated amount of time (assay dependent) before further analysis.
To evaluate the effect of α-enolase depletion on the chemosensitivity of cells to cytotoxic agents, MTT assays were performed in breast adenocarcinoma MCF-7 cells transfected with α-enolase specific siRNAs. […] The predicted EC50 values (the effective dose of a compound responsible for a positive effect half-way between baseline and maximum net impact) for the α-enolase-depleted cells are shown in Table 3. Similarly, results using other chemotherapeutic drugs are also shown in the table indicating the sensitivity of breast cancer tissue to α-enolase depletion.

[5] = system: A549 cells; experiment: Clonogenic assay, A549 cells; type: cell-based, human; conditions: A549 cells vs control vectors
[6] = system: PC-3 cells; experiment: MTT cytotoxicity assay, PC-3 cells transfected with α-enolase siRNA; type: cell-based; conditions: for EC50: Homo sapiens
[7] = system: MCF-7 cells; experiment: Clonogenic assay, MCF-7 cells; type: cell-based, human; conditions: MCF-7 cells
Protocol: Utilizing a clonogenic assay generated additional information concerning cell viability after drug-resistant cells were exposed to siRNA and chemotherapeutics. […] Taxol or Vincristine was added at IC10 or IC50 concentrations determined from MTT experiments for MCF-7 cells. […] The cells were further incubated for an additional 7 days. At the end of the incubation, the cells were stained with addition of a 0.5% Methylene Blue solution in 50% ethanol for 15 min. at RT. The staining solution was then removed and plates were dried overnight. The plates were scanned and the stained colonies were solubilized in 0.1% SDS. The absorbance of the resulting solution was determined by spectrophotometry at 660 nm.

[8] = system: CaOV3 cells; experiment: MTT cytotoxicity assay, CaOV3 cells transfected with α-enolase RNAi; type: cell-based, human; conditions: for EC50: Homo sapiens, 72 hours post transfection
Excerpt: These observations were expanded by targeting α-enolase in the ovarian cancer cell line, CaOV3.

[9] = system: SW-480 cells; experiment: cells; type: cell-based, human; conditions: Homo sapiens, SW480, SW-480 cells
Protocol: The colorectal adenocarcinoma cell line SW-480 was treated with α-enolase-directed siRNA using the procedures described above.

[10] = system: MDA-435 cells; experiment: cells; type: cell-based, human; conditions: MDA-435 cells; for EC50: Homo sapiens, MDA435
Protocol: Similar tests utilizing α-enolase siRNA were performed on MDA-435 breast adenocarcinoma cells. Chemosensitivity to various drugs was determined for the MDA-435 cells as described above.

[11] = control, read-out: Control (EC50)
[12] = α-enolase specific siRNA, read-out: α-Enolase (EC50)

In the case of `CC(=O)O[C@H]1C(=O)[C@@]2(C)[C@H]([C@H](OC(=O)c3ccccc3)[C@]3(O)C[C@H](OC(=O)[C@H](O)[C@@H](NC(=O)c4ccccc4)c4ccccc4)C(C)=C1C3(C)C)[C@]1(OC(C)=O)CO[C@@H]1C[C@@H]2O` [Taxol], the “cytotoxic effect in α-enolase-depleted cells” value [1] is reported as “enhanced cytotoxic effect”, the “viability of α-enolase-silenced cells under drug treatment vs control cells” value [2] is reported as “greatest decreases in viability” and the EC50 ([2]; NCI-H460, control, read-out: Control (EC50)) is reported as 2240 pM. For the same compound, the EC50 ([2]; NCI-H460, α-enolase specific siRNA, read-out: α-Enolase (EC50)) was 602 pM, the “chemosensitivity of α-enolase-silenced cells (words)” value ([3]; A549 cells) was “enhanced chemosensitivity; also recorded: significant shifts in their chemosensitivities” and the EC50 ([3]; A549, read-out: Control (EC50)) was 5940 pM. It also gave an EC50 ([3]; A549, read-out: α-Enolase (EC50)) of 3160 pM, an EC50 ([4]; Homo sapiens, MCF7, control siRNA, 72 hrs drug, read-out: Control (EC50)) of 78400 pM and an IC50 ([4]; Homo sapiens, MCF7, from MTT experiments) of 100000 pM. For the same compound, the EC50 ([4]; Homo sapiens, MCF7, α-enolase specific siRNA, read-out: α-Enolase (EC50)) was 7160 pM, the “sensitivity of α-enolase silenced cells” value [4] was “substantial increase in their sensitivity” and the IC10 ([4]; from MTT experiments) was 1000 pM. The “EC50 lower in α-enolase-depleted cells vs control siRNA treated cells” value ([4]; on average) was 10 fold, the “sensitivity of α-enolase siRNA cells in clonogenic assay” value [5] was “more sensitive” and the “enhancement in sensitivity with α-enolase silencing” value [6] was 10 fold. The EC50 [6, 11] was 199 pM, the EC50 [6, 12] was 20.6 pM and the “cytotoxicity in α-enolase depleted cells in clonogenic assay” value [7] was “enhanced taxol cytotoxicity”. For the same compound, the “decrease of chemotherapeutic drug resistance by α-enolase-directed siRNA vs mock siRNA” value [8] was 24.6 fold, the EC50 ([8]; Caov-3, control, read-out: Control (EC50)) was 2690 pM and the EC50 ([8]; Caov-3, α-enolase specific RNAi, read-out: α-Enolase (EC50)) was 110 pM. The EC50 [9, 11] was 276 pM, the EC50 [9, 12] was 33 pM and the EC50 ([10]; Eno-1 siRNA, read-out: Eno-1 (EC50)) was 334 pM. The EC50 ([10]; Eno-1 stealth siRNA, read-out: Eno-1 ST (EC50)) was 149 pM, the EC50 ([10]; control siRNA, read-out: Control (EC50)) was 1100 pM and the EC50 ([10]; mock transfection, read-out: Mock (EC50)) was 445 pM. For the same compound, the “sensitivity of α-enolase-silenced cells” value [10] was “Increases in sensitivity”.
